Data taken from the supplement of paper PMC10307832.

Experiments:
Test in all cases: relative viability (nuclei count vs DMSO), 5 days (fraction); higher = more cells survive
Zosuquidar + Palbociclib = compound: O[C@@H](COc1cccc2ncccc12)CN1CCN([C@@H]2c3ccccc3[C@@H]3[C@H](c4ccccc42)C3(F)F)CC1 [Zosuquidar] + CC(=O)c1c(C)c2cnc(Nc3ccc(N4CCNCC4)cn3)nc2n(C2CCCC2)c1=O [Palbociclib] (partner 0.5 µM)
Method in brief: (§1)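 Lung cancer cell lines in 1536-well plates were dosed by pin tool the day after seeding, either with one drug alone or with a fixed anchor-drug dose plus five library-drug doses (not always all listed) in √10 steps. After 5 days, cells were fixed and their nuclei stained in one step (final 0.05% Triton X-100, 1% formaldehyde, 1 ug/ml Hoechst), then counted on 4× images. Relative viability is the nuclei count in treated wells divided by that in vehicle wells. Values are medians of duplicate plates.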

Kobe2602 + Lapatinib = compound: C1=CC(=CC=C1NC(=S)NNC2=C(C=C(C=C2[N+](=O)[O-])C(F)(F)F)[N+](=O)[O-])F [Kobe2602] + CS(=O)(=O)CCNCc1ccc(-c2ccc3ncnc(Nc4ccc(OCc5cccc(F)c5)c(Cl)c4)c3c2)o1 [Lapatinib] (partner 2 µM)
Method in brief: as §1

Zosuquidar + Crizotinib = compound: O[C@@H](COc1cccc2ncccc12)CN1CCN([C@@H]2c3ccccc3[C@@H]3[C@H](c4ccccc42)C3(F)F)CC1 [Zosuquidar] + C[C@@H](Oc1cc(-c2cnn(C3CCNCC3)c2)cnc1N)c1c(Cl)ccc(F)c1Cl [Crizotinib] (partner 1 µM)
Method in brief: as §1

Zosuquidar + Trametinib = compound: O[C@@H](COc1cccc2ncccc12)CN1CCN([C@@H]2c3ccccc3[C@@H]3[C@H](c4ccccc42)C3(F)F)CC1 [Zosuquidar] + CC(=O)Nc1cccc(-n2c(=O)n(C3CC3)c(=O)c3c(Nc4ccc(I)cc4F)n(C)c(=O)c(C)c32)c1 [Trametinib] (partner 0.02 µM)
Method in brief: as §1

Cell Line | relative viability (Zosuquidar + Palbociclib; first compound 0.01 µM) | relative viability (Zosuquidar + Palbociclib; first compound 0.03162 µM) | relative viability (Zosuquidar + Palbociclib; first compound 0.1 µM) | relative viability (Zosuquidar + Palbociclib; first compound 0.3162 µM) | relative viability (Zosuquidar + Palbociclib; first compound 1 µM) | relative viability (Kobe2602 + Lapatinib; first compound 0.2 µM) | relative viability (Kobe2602 + Lapatinib; first compound 0.6325 µM) | relative viability (Kobe2602 + Lapatinib; first compound 2 µM) | relative viability (Kobe2602 + Lapatinib; first compound 6.325 µM) | relative viability (Kobe2602 + Lapatinib; first compound 20 µM) | relative viability (Zosuquidar + Crizotinib; first compound 0.01 µM) | relative viability (Zosuquidar + Crizotinib; first compound 0.03162 µM) | relative viability (Zosuquidar + Crizotinib; first compound 0.1 µM) | relative viability (Zosuquidar + Crizotinib; first compound 0.3162 µM) | relative viability (Zosuquidar + Crizotinib; first compound 1 µM) | relative viability (Zosuquidar + Trametinib; first compound 0.01 µM) | relative viability (Zosuquidar + Trametinib; first compound 0.03162 µM) | relative viability (Zosuquidar + Trametinib; first compound 0.1 µM) | relative viability (Zosuquidar + Trametinib; first compound 0.3162 µM) | relative viability (Zosuquidar + Trametinib; first compound 1 µM)
LK-2 | 0.666 | 0.722 | 0.563 | 0.768 | 0.715 | 1.02 | 0.857 | 0.961 | 0.83 | 1.09 | 0.237 | 0.218 | 0.28 | 0.274 | 0.224 | 0.822 | 0.794 | 0.735 | 0.825 | 0.89
H3255 | 0.306 | 0.335 | 0.32 | 0.33 | 0.33 | 0.244 | 0.301 | 0.234 | 0.25 | 0.239 | 0.885 | 0.832 | 0.669 | 0.945 | 0.857 | 0.58 | 0.581 | 0.525 | 0.638 | 0.632
NCI-H2347 | 0.403 | 0.466 | 0.432 | 0.413 | 0.43 | 0.939 | 0.963 | 0.913 | 0.988 | 0.909 | 0.786 | 0.75 | 0.575 | 0.794 | 0.717 | 0.268 | 0.268 | 0.276 | 0.311 | 0.297
CAL-12T | 0.381 | 0.62 | 0.412 | 0.593 | 0.462 | 0.676 | 0.717 | 0.681 | 0.627 | 0.696 | 0.51 | 0.676 | 0.719 | 0.747 | 0.497 | 0.327 | 0.449 | 0.262 | 0.442 | 0.32
A-427 | 0.542 | 0.522 | 0.552 | 0.566 | 0.51 | 0.995 | 1.02 | 1.01 | 1.03 | 0.953 | 0.851 | 0.911 | 0.784 | 0.957 | 0.858 | 0.795 | 0.871 | 0.77 | 0.82 | 0.741
HARA | 0.324 | 0.18 | 0.304 | 0.245 | 0.299 | 0.677 | 0.844 | 0.689 | 0.697 | 0.814 | 0.924 | 1.03 | 1.14 | 1.09 | 1.07 | 0.833 | 0.938 | 0.772 | 1.03 | 0.541
NCI-H2170 | 0.364 | 0.42 | 0.397 | 0.426 | 0.379 | 0.282 | 0.261 | 0.262 | 0.272 | 0.303 | 1.18 | 1.22 | 1.21 | 1.19 | 1.17 | 0.85 | 0.929 | 0.868 | 0.952 | 0.869
NCI-H2023 | 0.364 | 0.36 | 0.418 | 0.37 | 0.313 | 0.833 | 0.914 | 0.811 | 0.815 | 0.739 | 0.593 | 0.679 | 0.743 | 0.741 | 0.606 | 0.595 | 0.669 | 0.574 | 0.702 | 0.596
